Test results: patent US20070232601A1, “Vla-4 Inhibitor” (priority 2004, published 2007)

target: T1, hα4 and β1 integrins (VLA-4) (Homo sapiens, UniProt P05556+P13612); test: In vitro evaluation: inhibition of binding of CHO cells expressing hα4 and β1 integrins to Eu3+-hVCAM-1 D1D7-IgG; settings: ligand Eu3+-hVCAM-1 D1D7-IgG 2 nM, Ki calculated from IC50
T1 construct: expressed in transfected cells; host or cells: CHO cells
Description: CHO cells which were forced to be expressed by transduction of hα4 and β1 integrins are seeded (3×10^4 cells/100 μl/well) on a Costar 3599 plate, and cultured for 2 days. A medium is washed with a buffer A* two times, and Eu^3+-hVCAM-1 D1D7-IgG which was diluted with an assay buffer A** to 2 nM is added at 50 μl/well. A test substance which was diluted with 2% DMSO-assay buffer (in the presence or the absence of 6% human serum albumin) is added at 50 μl/well (A solution which was separately diluted is added to a well in which Scatchard analysis is performed), this is stirred with a plate mixer for 5 minutes, and allowed to stand at room temperature for 1 hour. Thereafter, this is washed with a buffer A four times, a potentiating reagent (manufactured by DELFIA) is added at 100 μl/well, this is shaken for 5 minutes using a plate mixer, and a fluorescence intensity is measured with a time-resolved fluorometer (DELFIA Wallac). IC50 (concentration at which binding of CHO cell and Eu^3+-hVCAM-1 D1D7-IgG is inhibited by 50%) of a test substance is obtained from an integration rate obtained from a calculation equation: [(FT−FNS)−(FI−FNS)]/[(FT−FNS)]×100, wherein FT indicates a fluorescence intensity of a well not containing a test substance, FNS indicates a fluorescence intensity of a well not containing a test substance and hVCAM-1 D1D7-IgG, and FI indicates a fluorescence intensity containing a test substance. A Kd value showing strength of binding and Bmax (maximum binding amount) were presumed in a range of 0.06 to 20 nM according to the Scachard analysis method. [formula]
A Ki value was calculated according to the above equation ([L] is ligand concentration)
[* buffer A: 25 mM HEPES (pH 7.5), 150 mM NaCl, 1 mM Ca^2+, 1 mM Mg^2+, 4 mM Mn^2+; ** assay buffer: 25 mM HEPES (pH 7.5), 150 mM NaCl, 1 mM Ca^2+, 1 mM Mg^2+, 4 mM Mn^2+, 0.1% BSA, 20 μM DTPA, with/without 6% ALBUMIN, HUMAN SERUM (C/NA-1653, SIGMA)]

T1 sequence (P13612 34-1032): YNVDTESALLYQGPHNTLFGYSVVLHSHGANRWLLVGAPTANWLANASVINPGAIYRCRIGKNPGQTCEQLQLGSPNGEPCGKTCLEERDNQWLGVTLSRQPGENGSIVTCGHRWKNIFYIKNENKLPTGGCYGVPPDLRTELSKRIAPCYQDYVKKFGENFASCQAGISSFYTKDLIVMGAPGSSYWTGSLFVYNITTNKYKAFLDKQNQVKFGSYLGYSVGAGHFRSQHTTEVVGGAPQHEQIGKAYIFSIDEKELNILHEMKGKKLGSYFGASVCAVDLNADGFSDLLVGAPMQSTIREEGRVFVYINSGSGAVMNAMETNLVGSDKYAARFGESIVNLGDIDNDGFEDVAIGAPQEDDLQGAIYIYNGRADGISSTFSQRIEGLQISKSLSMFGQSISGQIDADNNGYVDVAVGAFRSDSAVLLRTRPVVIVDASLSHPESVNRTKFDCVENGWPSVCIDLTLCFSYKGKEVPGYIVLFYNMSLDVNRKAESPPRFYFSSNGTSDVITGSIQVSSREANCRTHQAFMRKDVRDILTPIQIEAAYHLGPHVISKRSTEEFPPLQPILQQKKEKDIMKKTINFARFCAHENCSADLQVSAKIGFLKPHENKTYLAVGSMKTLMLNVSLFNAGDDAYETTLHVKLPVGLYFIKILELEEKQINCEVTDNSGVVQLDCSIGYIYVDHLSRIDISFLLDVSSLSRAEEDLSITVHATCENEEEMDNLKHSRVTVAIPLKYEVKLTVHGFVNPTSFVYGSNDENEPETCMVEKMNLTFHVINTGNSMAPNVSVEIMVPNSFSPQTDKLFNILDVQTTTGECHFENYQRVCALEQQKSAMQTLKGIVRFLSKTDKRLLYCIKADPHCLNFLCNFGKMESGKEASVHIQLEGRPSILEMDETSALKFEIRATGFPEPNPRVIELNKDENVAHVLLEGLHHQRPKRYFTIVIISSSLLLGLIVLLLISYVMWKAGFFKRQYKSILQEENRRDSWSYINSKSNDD
T1 sequence (P05556 21-798): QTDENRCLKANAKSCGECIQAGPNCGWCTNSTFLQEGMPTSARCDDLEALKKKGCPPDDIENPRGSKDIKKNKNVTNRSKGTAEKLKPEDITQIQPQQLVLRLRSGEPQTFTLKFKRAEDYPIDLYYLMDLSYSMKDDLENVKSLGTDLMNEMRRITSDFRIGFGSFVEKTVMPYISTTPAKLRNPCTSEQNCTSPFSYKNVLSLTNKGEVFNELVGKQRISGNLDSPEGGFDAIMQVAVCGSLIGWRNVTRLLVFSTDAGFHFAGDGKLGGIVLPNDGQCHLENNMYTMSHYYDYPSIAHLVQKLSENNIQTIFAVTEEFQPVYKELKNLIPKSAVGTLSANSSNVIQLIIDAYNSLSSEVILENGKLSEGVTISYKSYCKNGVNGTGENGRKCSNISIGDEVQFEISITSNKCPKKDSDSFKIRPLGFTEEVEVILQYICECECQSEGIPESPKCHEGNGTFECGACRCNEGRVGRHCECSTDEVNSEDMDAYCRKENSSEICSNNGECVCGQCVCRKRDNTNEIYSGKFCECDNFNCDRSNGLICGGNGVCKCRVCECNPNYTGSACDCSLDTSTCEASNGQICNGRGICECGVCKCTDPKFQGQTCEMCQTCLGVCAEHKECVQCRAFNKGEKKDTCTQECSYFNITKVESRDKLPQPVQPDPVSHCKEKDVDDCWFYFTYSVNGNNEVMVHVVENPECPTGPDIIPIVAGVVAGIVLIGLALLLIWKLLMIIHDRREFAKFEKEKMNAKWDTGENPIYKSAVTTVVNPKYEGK

**Q.** How did the Ki turn out when `CO[C@@H]1C[C@@H](c2ncc(CCC(=O)O)s2)N(C(=O)Cc2cc(Cl)c(NC(=O)c3cn(C)c4ccccc34)cc2Cl)C1` [Example 24, 3-[2-[1-[2,5-Dichloro-4-(1-methyl-3-indolylcarbonylamino)phenylacetyl]-(4R)-methoxy-(2S)-pyrrolidinyl]-5-thiazolyl]propionic acid] was run?
**A.** 6.5 nM

**Q.** With `Cn1cc(C(=O)Nc2cc(F)c(CC(=O)N3CCC[C@H]3c3ncc(CCC(=O)O)s3)cc2Cl)c2ccccc21` [Example 27, 3-[2-[1-[5-Chloro-2-fluoro-4-(1-methyl-3-indolylcarbonyl)aminophenylacetyl]-(2S)-pyrrolidinyl]-5-thiazolyl]propionic acid] as the compound, how does the Ki read?
**A.** 1.2 nM

**Q.** How did the Ki turn out when `O=C(O)CCc1cnc([C@@H]2CCCN2C(=O)Cc2cc(Cl)c(NC(=O)c3csc4ccccc34)cc2Cl)s1` [Example 28, 3-[2-[1-[[4-[(3-Benzo[b]thienylcarbonyl)amino]-2,5-dichlorophenyl]acetyl]-(2S)-pyrrolidinyl]-5-thiazolyl]propionic acid] was run?
**A.** 0.86 nM

**Q.** For `O=C(O)CCc1cnc([C@@H]2CCCN2C(=O)Cc2cc(Cl)c(NC(=O)c3csc4ccccc34)cc2F)s1` [Example 29, 3-[2-[1-[4-[(3-Benzo[b]thienylcarbonyl)amino]-5-chloro-2-fluorophenylacetyl]-(2S)-pyrrolidinyl]-5-thiazolyl]propionic acid], which Ki is on record?
**A.** 0.26 nM

**Q.** Which Ki does the source give for `CO[C@H]1C[C@@H](c2cc(CCC(=O)O)on2)N(C(=O)Cc2cc(Cl)c(NC(=O)c3cn(C)c4ccccc34)cc2Cl)C1` [Example 30, 3-[3-[1-[2,5-Dichloro-4-(1-methyl-3-indolylcarbonylamino)phenylacetyl]-(4S)-methoxy-(2S)-pyrrolidinyl]-5-isoxazole]propionic acid] here?
**A.** 5.8 nM

**Q.** For `CO[C@H]1C[C@@H](c2cc(CCC(=O)O)on2)N(C(=O)Cc2cc(Cl)c(NC(=O)c3cn(C)c4ccccc34)cc2F)C1` [Example 31, 3-[3-[1-[5-Chloro-2-fluoro-4-(1-methyl-3-indolylcarbonyl)aminophenylacetyl]-(4S)-methoxy-(2S)-pyrrolidinyl]-5-isoxazolyl]propionic acid], which Ki is on record?
**A.** 5.8 nM

**Q.** For `CO[C@H]1C[C@@H](c2cc(CCC(=O)O)on2)N(C(=O)Cc2cc(Cl)c(NC(=O)c3csc4ccccc34)cc2Cl)C1` [Example 32, 3-[3-[1-[[4-[(3-Benzo[b]thienylcarbonyl)amino]-2,5-dichlorophenyl]acetyl]-(4S)-methoxy-(2S)-pyrrolidinyl]-5-isoxazolyl]propionic acid], which Ki is on record?
**A.** 2.1 nM

**Q.** How did the Ki turn out when `CO[C@H]1C[C@@H](c2cc(CCC(=O)O)on2)N(C(=O)Cc2cc(Cl)c(NC(=O)c3csc4ccccc34)cc2F)C1` [Example 33, 3-[3-[1-[[4-[(3-Benzo[b]thienylcarbonyl)amino]-5-chloro-2-fluorophenyl]acetyl]-(4S)-methoxy-(2S)-pyrrolidinyl]-5-isoxazolyl]propionic acid] was run?
**A.** 2 nM

**Q.** `CC(C)O[C@H]1C[C@@H](c2ncc(CCC(=O)O)s2)N(C(=O)Cc2cc(Cl)c(NC(=O)c3cn(C)c4ccccc34)cc2Cl)C1` [Example 34, 3-[2-[1-[2,5-Dichloro-4-(1-methyl-3-indolylcarbonylamino)phenylacetyl]-(4S)-isopropoxy-(2S)-pyrrolidinyl]-5-thiazolyl]propionic acid] was tested. Which Ki did it give?
**A.** 5.1 nM

**Q.** How did the Ki turn out when `CC(C)O[C@H]1C[C@@H](c2ncc(CCC(=O)O)s2)N(C(=O)Cc2cc(Cl)c(NC(=O)c3cn(C)c4ccccc34)cc2F)C1` [Example 35, 3-[2-[1-[5-Chloro-2-fluoro-4-(1-methyl-3-indolylcarbonyl)aminophenylacetyl]-(4S)-isopropoxy-(2S)-pyrrolidinyl]-5-thiazolyl]propionic acid] was run?
**A.** 3 nM

**Q.** With `CC(C)O[C@H]1C[C@@H](c2ncc(CCC(=O)O)s2)N(C(=O)Cc2cc(Cl)c(NC(=O)c3coc4ccccc34)cc2Cl)C1` [Example 37, 3-[2-[1-[4-[(1-Benzofuran-3-ylcarbonyl)amino]-2,5-dichlorophenylacetyl]-(4S)-isopropoxy-(2S)-pyrrolidinyl]5-thiazolyl]propionic acid] as the compound, how does the Ki read?
**A.** 5.9 nM

**Q.** `CC(C)O[C@H]1C[C@@H](c2ncc(CCC(=O)O)s2)N(C(=O)Cc2cc(Cl)c(NC(=O)c3coc4ccccc34)cc2F)C1` [Example 38] was tested. Which Ki did it give?
**A.** 3.3 nM

**Q.** How did the Ki turn out when `Cn1cc(C(=O)Nc2cc(Cl)c(CC(=O)N3C[C@@H](OC4CCC4)C[C@H]3c3ncc(CCC(=O)O)s3)cc2Cl)c2ccccc21` [Example 39, 3-[2-[1-[2,5-Dichloro-4-(1-methyl-3-indolylcarbonylamino)phenylacetyl]-(4S)-cyclobutoxy-(2S)-pyrrolidinyl]-5-thiazolyl]propionic acid] was run?
**A.** 6.3 nM

**Q.** With `Cn1cc(C(=O)Nc2cc(F)c(CC(=O)N3C[C@@H](OC4CCC4)C[C@H]3c3ncc(CCC(=O)O)s3)cc2Cl)c2ccccc21` [Example 40, 3-[2-[1-[5-Chloro-2-fluoro-4-(1-methyl-3-indolylcarbonyl)aminophenylacetyl]-(4S)-cyclobutoxy-(2S)-pyrrolidinyl]-5-thiazolyl]propionic acid] as the compound, how does the Ki read?
**A.** 4 nM

**Q.** How did the Ki turn out when `O=C(O)CCc1cnc([C@@H]2C[C@H](OC3CCC3)CN2C(=O)Cc2cc(Cl)c(NC(=O)c3csc4ccccc34)cc2F)s1` [Example 41] was run?
**A.** 2.2 nM

**Q.** With `O=C(O)CCc1cnc([C@@H]2C[C@H](OC3CCC3)CN2C(=O)Cc2cc(Cl)c(NC(=O)c3coc4ccccc34)cc2Cl)s1` [Example 42, 3-[2-[1-[4-[(1-Benzofuran-3-ylcarbonyl)amino]-2,5-dichlorophenylacetyl]-(4S)-cyclobutoxy-(2S)-pyrrolidinyl]-5-thiazolyl]propionic acid] as the compound, how does the Ki read?
**A.** 7 nM

**Q.** How did the Ki turn out when `O=C(O)CCc1cnc([C@@H]2C[C@H](OC3CCC3)CN2C(=O)Cc2cc(Cl)c(NC(=O)c3coc4ccccc34)cc2F)s1` [Example 43, 3-[2-[1-[4-[(1-Benzofuran-3-ylcarbonyl)amino]-5-chloro-2-fluorophenylacetyl]-(4S)-cyclobutoxy-(2S)-pyrrolidinyl]-5-thiazolyl]propionic acid] was run?
**A.** 2.9 nM

**Q.** `Cn1cc(C(=O)Nc2cc(Cl)c(CC(=O)N3C[C@@H](Oc4cccnc4)C[C@H]3c3ncc(CCC(=O)O)s3)cc2Cl)c2ccccc21` [Example 44, 3-[2-[1-[2,5-Dichloro-4-(1-methyl-3-indolylcarbonylamino)phenylacetyl]-(4S)-(3-pyridyloxy)-(2S)-pyrrolidinyl]-5-thiazolyl]propionic acid] was tested. Which Ki did it give?
**A.** 3.9 nM

**Q.** How did the Ki turn out when `CCOC[C@@H]1CC[C@@H](c2ncc(CCC(=O)O)s2)N1C(=O)Cc1cc(Cl)c(NC(=O)c2cn(C)c3ccccc23)cc1Cl` [Example 48, 3-[2-[1-[2,5-Dichloro-4-(1-methyl-3-indolylcarbonylamino)phenylacetyl]-(5S)-ethoxymethyl-(2S)-pyrrolidinyl]-5-thiazolyl]propionic acid] was run?
**A.** 36 nM

**Q.** Which Ki does the source give for `CCOC[C@@H]1CC[C@@H](c2ncc(CCC(=O)O)s2)N1C(=O)Cc1cc(Cl)c(NC(=O)c2csc3ccccc23)cc1F` [Example 49, 3-[2-[1-[4-[(3-Benzo[b]thienylcarbonyl)amino]-5-chloro-2-fluorophenylacetyl]-(5S)-ethoxymethyl-(2S)-pyrrolidinyl]-5-thiazolyl]propionic acid] here?
**A.** 22 nM

**Q.** `CCOC[C@@H]1CC[C@@H](c2ncc(CCC(=O)O)s2)N1C(=O)Cc1cc(Cl)c(NC(=O)c2coc3ccccc23)cc1F` [Example 50, 3-[2-[1-[4-[(1-Benzofuran-3-ylcarbonyl)amino]-5-chloro-2-fluorophenylacetyl]-(5S)-ethoxymethyl-2(2S)-pyrrolidinyl)-5-thiazolyl]propionic acid] was tested. Which Ki did it give?
**A.** 51 nM

**Q.** `CCOC[C@@H]1CC[C@@H](c2ncc(CCC(=O)O)s2)N1C(=O)Cc1ccc2nc(Nc3cc(F)ccc3OC)oc2c1F` [Example 52, 3-[2-[(5S)-ethoxymethyl-1-[7-fluoro-2-(5-fluoro-2-methoxyphenylamino)-6-benzoxazolylacetyl]-(2S)-pyrrolidinyl]-5-thiazolyl]propionic acid] was tested. Which Ki did it give?
**A.** 34 nM

**Q.** With `COC[C@@H]1CC[C@@H](c2ncc(CCC(=O)O)s2)N1C(=O)Cc1cc(Cl)c(NC(=O)c2cn(C)c3ccccc23)cc1F` [Example 53, 3-[2-[1-[5-Chloro-2-fluoro-4-(1-methyl-3-indolylcarbonyl)aminophenylacetyl]-(5S)-methoxymethyl-(2S)-pyrrolidinyl]-5-thiazolyl]propionic acid] as the compound, how does the Ki read?
**A.** 16 nM

**Q.** `COC[C@@H]1CC[C@@H](c2ncc(CCC(=O)O)s2)N1C(=O)Cc1cc(Cl)c(NC(=O)c2cn(C)c3ccccc23)cc1Cl` [Example 54, 3-[2-[1-[2,5-Dichloro-4-(1-methyl-3-indolylcarbonylamino)phenylacetyl]-(5S)-methoxymethyl-(2S)-pyrrolidinyl]-5-thiazolyl]propionic acid] was tested. Which Ki did it give?
**A.** 24 nM
